From US9914737B2, “Triazolopyrimidinone or triazolopyridinone derivatives, and use thereof” (ST PHARM CO., LTD., priority 2014, dated 2018) come the findings set out here.

Each structure is given as a SMILES string. Counter-ions that a name gives are not always drawn. Like-named read-outs stand apart in the source and are kept apart here.

In this experiment the target is T1, tankyrase 1 (Homo sapiens, UniProt O95271).
T1 construct: purchased Trevigen 4700-096-K
T1 sequence (O95271 1-1327): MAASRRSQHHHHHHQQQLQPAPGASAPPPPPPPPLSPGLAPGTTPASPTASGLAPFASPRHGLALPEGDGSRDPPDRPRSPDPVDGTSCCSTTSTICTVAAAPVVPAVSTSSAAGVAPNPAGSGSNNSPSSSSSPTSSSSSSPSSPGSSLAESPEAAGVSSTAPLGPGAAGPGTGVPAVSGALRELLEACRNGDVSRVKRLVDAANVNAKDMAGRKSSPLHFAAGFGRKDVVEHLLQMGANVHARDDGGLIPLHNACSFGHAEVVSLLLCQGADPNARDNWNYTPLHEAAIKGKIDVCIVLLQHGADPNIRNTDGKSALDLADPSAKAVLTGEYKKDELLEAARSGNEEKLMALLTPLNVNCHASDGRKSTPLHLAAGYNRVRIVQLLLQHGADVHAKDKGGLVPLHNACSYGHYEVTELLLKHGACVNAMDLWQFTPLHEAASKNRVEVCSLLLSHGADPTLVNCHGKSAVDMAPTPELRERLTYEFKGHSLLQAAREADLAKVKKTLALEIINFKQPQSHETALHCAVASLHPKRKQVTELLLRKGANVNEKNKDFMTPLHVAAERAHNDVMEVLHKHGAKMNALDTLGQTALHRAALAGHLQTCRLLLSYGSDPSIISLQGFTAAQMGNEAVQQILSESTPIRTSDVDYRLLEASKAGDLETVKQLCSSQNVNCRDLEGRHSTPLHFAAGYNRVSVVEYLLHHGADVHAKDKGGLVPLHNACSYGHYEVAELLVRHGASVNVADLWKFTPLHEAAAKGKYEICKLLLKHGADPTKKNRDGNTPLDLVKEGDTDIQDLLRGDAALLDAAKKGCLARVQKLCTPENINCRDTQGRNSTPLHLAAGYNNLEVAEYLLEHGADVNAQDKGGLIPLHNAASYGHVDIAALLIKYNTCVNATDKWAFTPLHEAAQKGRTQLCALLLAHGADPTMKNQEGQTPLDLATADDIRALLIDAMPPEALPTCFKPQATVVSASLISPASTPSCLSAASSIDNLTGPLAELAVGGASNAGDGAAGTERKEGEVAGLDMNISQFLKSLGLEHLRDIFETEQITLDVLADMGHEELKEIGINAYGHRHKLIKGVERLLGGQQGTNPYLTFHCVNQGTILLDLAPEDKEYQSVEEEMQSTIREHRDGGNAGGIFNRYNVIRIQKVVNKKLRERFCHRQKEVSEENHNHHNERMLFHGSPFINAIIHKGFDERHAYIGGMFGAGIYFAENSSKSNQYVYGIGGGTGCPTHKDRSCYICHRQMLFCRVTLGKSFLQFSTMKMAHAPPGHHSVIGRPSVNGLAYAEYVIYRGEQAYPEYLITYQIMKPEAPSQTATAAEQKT
Put plainly: Analysis of activity of tankyrase 1 (Trevigen kit, ELISA absorbance at 450 nm). The experiment is classed as biochemical. The procedure: Activities of novel compounds synthesized according to Examples 1 to 72 against tankyrase 1 were analyzed using a Trevigen kit (Cat. No. 4700-096-K). Poly PAR histone protein-coated 96-well plate, anti-PAR monoclonal antibody and goat anti-mouse IgG-HRP were used for measurement of absorbance by ELISA method. Specifically, 20× I-PAR assay buffer was diluted to 1× by adding water, and 50 μL of the diluted buffer was added to each well of the 96-well plate followed by reacting at rt for 30 min. Then, the supernatant was completely removed from each well and 10 μL of 1× I-PAR assay buffer and 15 μL of assay substrate were added to each well along with 1 μL of a 50× solution of inhibitors to be tested, which were the compounds obtained in the Examples 1 to 72. 10 mUnits/μL of tankyrase 1 enzyme was diluted 50-fold with 1× I-PAR assay buffer and 25 μL of the diluted enzyme was added to each well and reacted while stirring at rt for 30 min. One without any compound of the present invention was used as a positive control and another containing 1× I-PAR assay buffer with the same volume instead of tankyrase 1 enzyme was used as a negative control. Upon completion of the reaction, 200 μL of PBSX, which was prepared by adding 0.1% triton X-100 to PBS, was added and removed and this washing process was repeated twice. Washing was repeated twice more using PBS in the same manner. 5× antibody diluent was diluted with distilled water to 1× concentration, 50 μL of the diluted goat anti-mouse IgG-HRP to 1/2000 was added to each well and reacted while stirring at rt for 30 min. Washes were carried out twice using PBSX and PBS, respectively. After adding 50 μL of TACS-sapphire to each well of the plate, the plate was blocked from light to react for 10 min to 15 min and the color of the reaction solution turned blue. To stop the reaction, 50 μL of 0.2N HCl was added to turn the solution yellow. Finally, the absorbance of the resulting solution was measured at 450 nm.
On the technique in general: ELISA stands for enzyme-linked immunosorbent assay.

Setting [1] is: tankyrase 1 enzyme, Trevigen kit Cat. No. 4700-096-K, 30 min at rt, read-out: TNKS1 (IC50).

On to `Cn1nnc2c(=O)[nH]c(N3CCN(c4c(F)cc(OCC(=O)N5CCCC5)cc4F)CC3)cc21` [compound 70, 6-(4-(2,6-Difluoro-4-(2-oxo-2-(pyrrolidin-1-yl)ethoxy)phenyl)piperazin-1-yl)-1-methyl-1H-[1,2,3]triazolo[4,5-c]pyridin-4(5H)-one], for which the IC50 (in general, the concentration that gives 50% inhibition) under setting [1] is 15.6 nM.
`COCCN(C)Cc1cc(F)c(N2CCN(c3cc4c(nnn4C)c(=O)[nH]3)CC2)c(F)c1` [compound 65, 6-(4-(2,6-Difluoro-4-(((2-methoxyethyl)(methyl)amino)methyl)phenyl)piperazin-1-yl)-1-methyl-1H-[1,2,3]triazolo[4,5-c]pyridin-4(5H)-one]: under setting [1], the IC50 stood at 40.2 nM.
The same measure, in the same setting: the value for `Cn1nnc2c(=O)[nH]c(N3CCC(c4nnn[nH]4)CC3)nc21` [compound 26, 5-(4-(1H-tetrazol-5-yl)piperidin-1-yl)-3-methyl-3H-[1,2,3]triazolo[4,5-d]pyrimidin-7(6H)-one] was 411 nM; that for `Cn1nnc2c(=O)[nH]c(N3CCN(c4c(F)cc(OC(CO)CCl)cc4F)CC3)nc21` (centres unmarked) [compound 16, 5-(4-(4-(1-Chloro-3-hydroxypropan-2-yloxy)-2,6-difluorophenyl)piperazin-1-yl)-3-methyl-3H-[1,2,3]triazolo[4,5-d]pyrimidin-7(6H)-one] was 28.6 nM.
Same read-out and setting: in the case of `Cn1nnc2c(=O)[nH]c(N3CCN(c4c(F)cc(OCC(=O)N5CCCCC5)cc4F)CC3)nc21` [compound 35, 5-(4-(2,6-Difluoro-4-(2-oxo-2-(piperidin-1-yl)ethoxy)phenyl)piperazin-1-yl)-3-methyl-3H-[1,2,3]triazolo[4,5-d]pyrimidin-7(6H)-one] it was 48.7 nM; in that of `Cn1nnc2c(=O)[nH]c(N3CCN(c4c(F)cc(OCCCN5CCCCC5)cc4F)CC3)cc21` [compound 69, 6-(4-(2,6-Difluoro-4-(3-(piperidin-1-yl)propoxy)phenyl)piperazin-1-yl)-1-methyl-1H-[1,2,3]triazolo[4,5-c]pyridin-4(5H)-one], 19.1 nM.
As to `Cn1nnc2c(=O)[nH]c(N3CCN(c4c(F)cc(OCCN5CCCCC5)cc4F)CC3)nc21` [compound 5, 5-(4-(2,6-Difluoro-4-(2-(piperidin-1-yl)ethoxy)phenyl)piperazin-1-yl)-3-methyl-3H-[1,2,3]triazolo[4,5-d]pyrimidin-7(6H)-one], the IC50 under setting [1] is 14.2 nM.
Still for that read-out and setting: the value for `CN1CCN(Cc2cc(F)c(N3CCN(c4cc5c(nnn5C)c(=O)[nH]4)CC3)c(F)c2)CC1` [compound 61, 6-(4-(2,6-Difluoro-4-((4-methylpiperazin-1-yl)methyl)phenyl)piperazin-1-yl)-1-methyl-1H-[1,2,3]triazolo[4,5-c]pyridin-4(5H)-one] was 28.2 nM.
Same read-out and setting: the value for `CC(O)c1cc(F)c(N2CCN(c3nc4c(nnn4C)c(=O)[nH]3)CC2)c(F)c1` (centres unmarked) [compound 17, 5-(4-(2,6-Difluoro-4-(1-hydroxyethyl)phenyl)piperazin-1-yl)-3-methyl-3H-[1,2,3]triazolo[4,5-d]pyrimidin-7(6H)-one] was 17.6 nM; that for `COC(C)c1cc(F)c(N2CCN(c3nc4c(nnn4C)c(=O)[nH]3)CC2)c(F)c1` (centres unmarked) [compound 18, 5-(4-(2,6-Difluoro-4-(1-methoxyethyl)phenyl)piperazin-1-yl)-3-methyl-3H-[1,2,3]triazolo[4,5-d]pyrimidin-7(6H)-one] was 30 nM.
The same measure, in the same setting: in the case of `Cn1nnc2c(=O)[nH]c(N3CCN(c4c(F)cc(OCCN)cc4F)CC3)cc21` [compound 71, 6-(4-(4-(2-Aminoethoxy)-2,6-difluorophenyl)piperazin-1-yl)-1-methyl-1H-[1,2,3]triazolo[4,5-c]pyridin-4(5H)-one] it was 24.9 nM.
Turning to `C[C@@H](N)C(=O)OCCOc1cc(F)c(N2CCN(c3nc4c(nnn4C)c(=O)[nH]3)CC2)c(F)c1` [compound 10, (R)-2-(3,5-difluoro-4-(4-(3-methyl-7-oxo-6,7-dihydro-3H-[1,2,3]triazolo[4,5-d]pyrimidin-5-yl)piperazin-1-yl)phenoxy)ethyl2-aminopropanoate hydrochloride], the IC50 under setting [1] is 32 nM.
Consider `COC(C)c1cc(F)c(N2CCN(c3cc4c(nnn4C)c(=O)[nH]3)CC2)c(F)c1` (centres unmarked) [compound 64, 6-(4-(2,6-Difluoro-4-(1-methoxyethyl)phenyl)piperazin-1-yl)-1-methyl-1H[1,2,3]triazolo[4,5-c]pyridin-4(5H)-one], for which the IC50 under setting [1] turned out to be 31.2 nM.
Turning to `Cn1nnc2c(=O)[nH]c(N3CCN(c4c(F)cccc4F)CC3)nc21` [compound 21, 5-(4-(2,6-Difluorophenyl)piperazin-1-yl)-3-methyl-3H-[1,2,3]triazolo[4,5-d]pyrimidin-7(6H)-one], the IC50 was 8.9 nM.
As to `Cn1nnc2c(=O)[nH]c(N3CCN(c4c(F)cc(OCCN5CCC(O)C5)cc4F)CC3)nc21` (centres unmarked) [compound 41, 5-(4-(2,6-Difluoro-4-(2-(3-hydroxypyrrolidin-1-yl)ethoxy)phenyl)piperazin-1-yl)-3-methyl-3H-[1,2,3]triazolo[4,5-d]pyrimidin-7(6H)-one], under setting [1], the IC50 is 71.3 nM.
In the case of `COCCN(CCOC)c1cc(F)c(N2CCN(c3nc4c(nnn4C)c(=O)[nH]3)CC2)c(F)c1` [compound 34, 5-(4-(4-(Bis(2-methoxyethyl)amino)-2,6-difluorophenyl)piperazin-1-yl)-3-methyl-3H-[1,2,3]triazolo[4,5-d]pyrimidin-7(6H)-one], the half-maximal inhibitory concentration (IC50) under setting [1] amounted to 67.7 nM.
Regarding `Cn1nnc2c(=O)[nH]c(N3CCN(c4c(F)cc(OCCN5CCC(N)CC5)cc4F)CC3)cc21` [compound 72, 6-(4-(4-(2-(4-Aminopiperidin-1-yl)ethoxy)-2,6-difluorophenyl)piperazin-1-yl)-1-methyl-1H-[1,2,3]triazolo[4,5-c]pyridin-4(5H)-one], the IC50 under setting [1] amounted to 7.31 nM.
`Cn1nnc2c(=O)[nH]c(N3CCN(c4c(F)cc(OC5COC5)cc4F)CC3)nc21` [compound 15, 5-(4-(2,6-Difluoro-4-(oxetan-3-yloxy)phenyl)piperazin-1-yl)-3-methyl-3H-[1,2,3]triazolo[4,5-d]pyrimidin-7(6H)-one] gave an IC50 of 24.7 nM.
In the case of `Cn1nnc2c(=O)[nH]c(N3CCN(c4c(F)cc(CN5CCOCC5)cc4F)CC3)nc21` [compound 13, 5-(4-(2,6-Difluoro-4-(morpholinomethyl)phenyl)piperazin-1-yl)-3-methyl-3H-[1,2,3]triazolo[4,5-d]pyrimidin-7(6H)-one], under setting [1], the IC50 is 28 nM.
The same measure, in the same setting: the value for `CN1CCN(CCOc2cc(F)c(N3CCN(c4cc5c(nnn5C)c(=O)[nH]4)CC3)c(F)c2)CC1` [compound 68, 6-(4-(2,6-Difluoro-4-(2-(4-methylpiperazin-1-yl)ethoxy)phenyl)piperazin-1-yl)-1-methyl-1H-[1,2,3]triazolo[4,5-c]pyridin-4(5H)-one] was 14.2 nM.
